Measured values published in article PMC8286840, “Identifying SARS-CoV-2 antiviral compounds by screening for small molecule inhibitors of Nsp3 papain-like protease” (Biochemical Journal, 2021).
Counter-ions that a name gives are not always drawn. Like-named read-outs stand apart in the source and are kept apart here.

Experiments:
[1] = biological target: T1, SARS-CoV-2 PLpro (nsp3 1564–1878) (Severe acute respiratory syndrome coronavirus 2, UniProt P0DTD1); assay: biochemical; design: FRET-quenched peptide (Pro3) cleavage by PLpro, 10 min pre-incubation, slope over 20 min, normalised to no-compound control; details: low concentration screen, read-out: % of control remaining
[2] = biological target: T1, SARS-CoV-2 PLpro (nsp3 1564–1878); assay: biochemical; design: FRET-quenched peptide (Pro3) cleavage by PLpro, 10 min pre-incubation, slope over 20 min, normalised to no-compound control; details: high concentration screen, read-out: % of control remaining

**Q.** Which results are given for NS(=O)(=O)c1cc2c(cc1Cl)N=CNS2(=O)=O [Chlorothiazide]?
**A.** remaining activity at 1.25 µM ([1]; Well no.=82): 99.4%; remaining activity at 1.25 µM ([1]; Well no.=7460): 96%; remaining activity at 3.75 µM ([2]; Well no.=82): 100%; remaining activity at 3.75 µM ([2]; Well no.=7460): 102%

**Q.** How did the remaining activity at 1.25 µM ([1]; Well no.=8478) turn out when O=S(=O)(CC1CS1)c1ccc(Oc2ccccc2)cc1 (stereo not shown) [SB-3CT] was run?
**A.** 95.9%

**Q.** And the remaining activity at 3.75 µM ([2]; Well no.=8478)?
**A.** 91.4%

**Q.** CC(C)N(CC[C@H](c1ccccc1)c1cc(CO)ccc1O)C(C)C [(R)-5-Hydroxymethyl Tolterodine] was tested. Which remaining activity at 1.25 µM ([1]; Well no.=7038) did it give?
**A.** 107%

**Q.** And the remaining activity at 3.75 µM ([2]; Well no.=7038)?
**A.** 107%

**Q.** With CCN1CCN(C(=O)N[C@@H](C(=O)N[C@@H]2C(=O)N3[C@@H]2SC(C)(C)[C@@H]3C(=O)O)c2ccccc2)C(=O)C1=O [Piperacillin] as the molecule, how does the remaining activity at 1.25 µM ([1]; Well no.=2107) read?
**A.** 104%

**Q.** What about the remaining activity at 3.75 µM ([2]; Well no.=2107) of the same molecule?
**A.** 104%

**Q.** With Cc1ccc(NC(=O)c2cccc(C(C)(C)C#N)c2)cc1Nc1ccc2ncn(C)c(=O)c2c1 [AZ628] as the molecule, how does the remaining activity at 1.25 µM ([1]; Well no.=5037) read?
**A.** 88.5%

**Q.** And the remaining activity at 3.75 µM ([2]; Well no.=5037)?
**A.** 94.3%

**Q.** O=C(O)COc1ccc(C(=O)c2cccs2)c(Cl)c1Cl [Tienilic Acid] was tested. Which remaining activity at 1.25 µM ([1]; Well no.=5851) did it give?
**A.** 105%

**Q.** And the remaining activity at 3.75 µM ([2]; Well no.=5851)?
**A.** 102%

**Q.** How did the remaining activity at 1.25 µM ([1]; Well no.=1214) turn out when CN1CCc2cccc(Cl)c2CC1 [SKF 86466] was run?
**A.** 101%

**Q.** And the remaining activity at 3.75 µM ([2]; Well no.=1214)?
**A.** 97.9%

**Q.** CCCCCCCCCCCCC/C=C/[C@@H](O)[C@H](CO)NC(=O)CCCCC [C6 Ceramide] was tested. Which remaining activity at 1.25 µM ([1]; Well no.=3123) did it give?
**A.** 100%

**Q.** And the remaining activity at 3.75 µM ([2]; Well no.=3123)?
**A.** 101%

**Q.** Which results are given for C[C@](N)(Cc1ccc(O)cc1)C(=O)O [L-alpha-Methyl-p-tyrosine]?
**A.** remaining activity at 1.25 µM ([1]; Well no.=843): 104%; remaining activity at 3.75 µM ([2]; Well no.=843): 106%

**Q.** How did the remaining activity at 1.25 µM ([1]; Well no.=3853) turn out when CCOC(=O)/C=C/c1ccc(O)c(OC)c1 [Ferulic acid ethylester] was run?
**A.** 97.6%

**Q.** And the remaining activity at 3.75 µM ([2]; Well no.=3853)?
**A.** 103%

**Q.** For N=C(N)N1CCc2ccccc2C1 [Debrisoquin], which remaining activity at 1.25 µM ([1]; Well no.=1905) is on record?
**A.** 99.9%

**Q.** And the remaining activity at 3.75 µM ([2]; Well no.=1905)?
**A.** 99.9%

**Q.** For CC(C)(C)C(=O)C(=Nc1ccc(Cl)cc1)NNc1ccc(Cl)cc1 [TY-52156], which remaining activity at 1.25 µM ([1]; Well no.=7819) is on record?
**A.** 105%

**Q.** What about the remaining activity at 3.75 µM ([2]; Well no.=7819) of the same molecule?
**A.** 104%

**Q.** What does the source list for CSc1ccc(C(=O)c2[nH]c(=O)[nH]c2C)cc1 [Enoximone]?
**A.** remaining activity at 1.25 µM ([1]; Well no.=406): 103%; remaining activity at 3.75 µM ([2]; Well no.=406): 102%

**Q.** How did the remaining activity at 1.25 µM ([1]; Well no.=1769) turn out when CC(C)OC(=O)CCC/C=C\C[C@@H]1[C@@H](CC[C@@H](O)CCc2ccccc2)[C@H](O)C[C@@H]1O [Latanoprost] was run?
**A.** 97.5%

**Q.** And the remaining activity at 1.25 µM ([1]; Well no.=6843)?
**A.** 100%

**Q.** What about the remaining activity at 3.75 µM ([2]; Well no.=1769) of the same molecule?
**A.** 95.3%

**Q.** What about the remaining activity at 3.75 µM ([2]; Well no.=6843) of the same molecule?
**A.** 98.9%

**Q.** What does the source list for Nc1nc2c([nH]c(=O)n2[C@H]2C[C@H](O)[C@@H](CO)O2)c(=O)[nH]1 [8-Hydroxy-2'-deoxyguanosine]?
**A.** remaining activity at 1.25 µM ([1]; Well no.=7113): 105%; remaining activity at 3.75 µM ([2]; Well no.=7113): 105%

**Q.** Which remaining activity at 1.25 µM ([1]; Well no.=4301) does the source give for CCCCC/C=C\C/C=C\C/C=C\C/C=C\CCCC(=O)O [Arachidonic acid] here?
**A.** 104%

**Q.** What about the remaining activity at 1.25 µM ([1]; Well no.=4446) of the same molecule?
**A.** 95.8%

**Q.** And the remaining activity at 3.75 µM ([2]; Well no.=4301)?
**A.** 101%

**Q.** And the remaining activity at 3.75 µM ([2]; Well no.=4446)?
**A.** 97.5%

**Q.** Which results are given for O=C(O)CCCN1CCC(O[C@@H](c2ccc(Cl)cc2)c2ccccn2)CC1 [Bepotastine Besilate]?
**A.** remaining activity at 1.25 µM ([1]; Well no.=5267): 91.9%; remaining activity at 3.75 µM ([2]; Well no.=5267): 91.2%

**Q.** With CN(C(=O)c1ccc(F)cc1C(F)(F)F)C1CCN(c2nnc(-c3ccnn3C)c3ccccc23)CC1 [LY2940680] as the molecule, how does the remaining activity at 1.25 µM ([1]; Well no.=4890) read?
**A.** 88.9%

**Q.** What about the remaining activity at 3.75 µM ([2]; Well no.=4890) of the same molecule?
**A.** 82.4%

**Q.** Which results are given for Cc1c(-c2ccc(O)cc2)n(Cc2ccc(OCCN3CCCCCC3)cc2)c2ccc(O)cc12 [Bazedoxifene HCl]?
**A.** remaining activity at 1.25 µM ([1]; Well no.=5100): 105%; remaining activity at 3.75 µM ([2]; Well no.=5100): 105%

**Q.** For CCC(C)(C)C(=O)N(O)Cc1ccccc1 [RIPA-56], which remaining activity at 1.25 µM ([1]; Well no.=6210) is on record?
**A.** 90.8%

**Q.** And the remaining activity at 3.75 µM ([2]; Well no.=6210)?
**A.** 92.1%

**Q.** For CC[C@@H]1C(=O)OC[C@@H]1Cc1cncn1C [(+)-Pilocarpine hydrochloride], which remaining activity at 1.25 µM ([1]; Well no.=1102) is on record?
**A.** 96.5%

**Q.** What about the remaining activity at 3.75 µM ([2]; Well no.=1102) of the same molecule?
**A.** 96.8%

**Q.** For CC(=O)O[C@]1(C(C)=O)CC[C@H]2[C@@H]3C[C@H](C)C4=CC(=O)CC[C@]4(C)[C@H]3CC[C@@]21C [Medroxyprogesterone 17-Acetate], which remaining activity at 1.25 µM ([1]; Well no.=1949) is on record?
**A.** 103%

**Q.** What about the remaining activity at 3.75 µM ([2]; Well no.=1949) of the same molecule?
**A.** 104%

**Q.** What does the source list for O=C(Nc1ccc(S(=O)(=O)Nc2nccs2)cc1)C(c1ccccc1)c1ccccc1 [ICA-121431]?
**A.** remaining activity at 1.25 µM ([1]; Well no.=7878): 98.2%; remaining activity at 3.75 µM ([2]; Well no.=7878): 99.6%

**Q.** What does the source list for COc1ccc2c3c([nH]c2c1)C(C)=NCC3 [Harmaline]?
**A.** remaining activity at 1.25 µM ([1]; Well no.=3286): 99.5%; remaining activity at 3.75 µM ([2]; Well no.=3286): 99.1%

**Q.** How did the remaining activity at 1.25 µM ([1]; Well no.=4749) turn out when CCOC(=O)N1c2ccc(C(F)(F)F)cc2[C@@H](N(Cc2cc(C(F)(F)F)cc(C(F)(F)F)c2)C(=O)OC)C[C@H]1CC [Torcetrapib (CP-529414)] was run?
**A.** 95.8%

**Q.** And the remaining activity at 3.75 µM ([2]; Well no.=4749)?
**A.** 98.1%

**Q.** How did the remaining activity at 1.25 µM ([1]; Well no.=8772) turn out when CC(C)NCCCn1c(Sc2cc3c(cc2I)OCO3)nc2c(N)ncnc21 [PU-H71] was run?
**A.** 98.2%

**Q.** What about the remaining activity at 3.75 µM ([2]; Well no.=8772) of the same molecule?
**A.** 95.7%

**Q.** For CC(=O)CCCCn1c(=O)c2c(ncn2C)n(C)c1=O [Pentoxifylline], which remaining activity at 1.25 µM ([1]; Well no.=1046) is on record?
**A.** 92.7%

**Q.** And the remaining activity at 1.25 µM ([1]; Well no.=2101)?
**A.** 101%

**Q.** What about the remaining activity at 3.75 µM ([2]; Well no.=1046) of the same molecule?
**A.** 94.8%

**Q.** And the remaining activity at 3.75 µM ([2]; Well no.=2101)?
**A.** 100%

**Q.** How did the remaining activity at 1.25 µM ([1]; Well no.=5075) turn out when Cc1ccc([C@@H]2O[C@H](CO)[C@@H](O)[C@H](O)[C@H]2O)cc1Cc1ccc(-c2ccc(F)cc2)s1 [Canagliflozin] was run?
**A.** 94.6%

**Q.** What about the remaining activity at 3.75 µM ([2]; Well no.=5075) of the same molecule?
**A.** 95.2%

**Q.** COc1cc2ncnc(Oc3cccc(NC(=O)Nc4cc(C(C)(C)C(F)(F)F)on4)c3)c2cc1OC [CEP-32496] was tested. Which remaining activity at 1.25 µM ([1]; Well no.=5362) did it give?
**A.** 100%

**Q.** What about the remaining activity at 3.75 µM ([2]; Well no.=5362) of the same molecule?
**A.** 96.8%

**Q.** For Cc1nn(C)c(COc2ccc(N3CCN(S(=O)(=O)N(C)C)CC3)cc2)c1-c1cccc2c(CCCOc3cccc4ccccc34)c(C(=O)O)n(CCN3CCOCC3)c12 [A-1210477], which remaining activity at 1.25 µM ([1]; Well no.=6970) is on record?
**A.** 99.5%

**Q.** What about the remaining activity at 3.75 µM ([2]; Well no.=6970) of the same molecule?
**A.** 101%

**Q.** Clc1ccc(COC(Cn2ccnc2)c2ccc(Cl)cc2Cl)c(Cl)c1 (stereo not shown) [Miconazole] was tested. Which remaining activity at 1.25 µM ([1]; Well no.=1965) did it give?
**A.** 86.9%

**Q.** What about the remaining activity at 3.75 µM ([2]; Well no.=1965) of the same molecule?
**A.** 92.2%

**Q.** How did the remaining activity at 1.25 µM ([1]; Well no.=3797) turn out when O=c1cccc2n1C[C@H]1CNC[C@H]2C1 [(-)-Cytisine] was run?
**A.** 97.8%

**Q.** And the remaining activity at 3.75 µM ([2]; Well no.=3797)?
**A.** 101%

**Q.** Which remaining activity at 1.25 µM ([1]; Well no.=2181) does the source give for C[C@]12CCC(=O)C=C1C=C[C@@H]1[C@@H]2CC[C@@]2(C)[C@H]1CC[C@@]21CCC(=O)O1 [Canrenone] here?
**A.** 93.5%

**Q.** What about the remaining activity at 3.75 µM ([2]; Well no.=2181) of the same molecule?
**A.** 98%

**Q.** Which remaining activity at 1.25 µM ([1]; Well no.=1821) does the source give for C=C1CC[C@H](O)C/C1=C/C=C1\CCC[C@]2(C)[C@@H]([C@H](C)CCCC(C)(C)O)CC[C@@H]12 [Calcifediol] here?
**A.** 90.8%

**Q.** And the remaining activity at 3.75 µM ([2]; Well no.=1821)?
**A.** 93.1%
